In the supplement of paper PMC10307832:

Tests used:
Experiment in all cases: relative viability (nuclei count vs DMSO), 5 days (fraction); higher = more cells survive
[1] = tested on: HCC-78
How it was run: (§1)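 For relative viability, nuclei counts in treated wells were divided by those in vehicle wells. Lung cancer cell lines had been pin-tool dosed in 1536-well plates the day after seeding and cultured for 5 days, then fixed and stained in one step (final 0.05% Triton X-100, 1% formaldehyde, 1 ug/ml Hoechst) and imaged at 4×. Doses were one drug alone or a fixed anchor-drug dose plus five library-drug doses (not always all listed) in √10 steps, and values are duplicate-plate medians.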

[2] = tested on: COR-L 105
How it was run: as §1

[3] = tested on: NCI-H1437
How it was run: as §1

[4] = tested on: SK-LU-1
How it was run: as §1

[5] = tested on: LOU-NH91
How it was run: as §1

[6] = tested on: NCI-H1734
How it was run: as §1

[7] = tested on: NCI-H358
How it was run: as §1

[8] = tested on: EKVX
How it was run: as §1

[9] = tested on: NCI-H522
How it was run: as §1

[10] = tested on: NCI-H2085
How it was run: as §1

[11] = tested on: LK-2
How it was run: as §1

[12] = tested on: SW 900
How it was run: as §1

[13] = tested on: NCI-H1792
How it was run: as §1

[14] = tested on: NCI-H1648
How it was run: as §1

[15] = tested on: BEN
How it was run: as §1

[16] = tested on: HCC-827
How it was run: as §1

[17] = tested on: EPLC-272H
How it was run: as §1

[18] = tested on: LU99A
How it was run: as §1

[19] = tested on: UMC-11
How it was run: as §1

[20] = tested on: NCI-H1650
How it was run: as §1

[21] = tested on: EMC-BAC-2
How it was run: as §1

[22] = tested on: NCI-H647
How it was run: as §1

[23] = tested on: NCI-H2023
How it was run: as §1

[24] = tested on: NCI-H650
How it was run: as §1

C=C1C(=O)O[C@@H](CCCCCCCC)[C@@H]1C(=O)O [C-75] + Nc1ncn([C@H]2C[C@H](O)[C@@H](CO)O2)c(=O)n1 [Decitabine] (partner 2 µM)
relative viability ([1]; first compound 0.08 µM): 0.693
relative viability ([1]; first compound 0.253 µM): 0.676
relative viability ([1]; first compound 0.8 µM): 0.72
relative viability ([1]; first compound 8 µM): 0.667
relative viability ([2]; first compound 0.08 µM): 0.7
relative viability ([2]; first compound 0.253 µM): 0.685
relative viability ([2]; first compound 0.8 µM): 0.582
relative viability ([2]; first compound 2.53 µM): 0.477
relative viability ([2]; first compound 8 µM): 0.606
relative viability ([3]; first compound 0.08 µM): 0.57
relative viability ([3]; first compound 0.253 µM): 0.586
relative viability ([3]; first compound 0.8 µM): 0.577
relative viability ([3]; first compound 8 µM): 0.48
relative viability ([4]; first compound 0.08 µM): 0.64
relative viability ([4]; first compound 0.253 µM): 0.588
relative viability ([4]; first compound 0.8 µM): 0.616
relative viability ([4]; first compound 2.53 µM): 0.532
relative viability ([4]; first compound 8 µM): 0.467
relative viability ([5]; first compound 0.08 µM): 0.83
relative viability ([5]; first compound 0.253 µM): 0.734
relative viability ([5]; first compound 0.8 µM): 0.752
relative viability ([5]; first compound 8 µM): 0.792
relative viability ([6]; first compound 0.08 µM): 0.516
relative viability ([6]; first compound 0.253 µM): 0.589
relative viability ([6]; first compound 0.8 µM): 0.457
relative viability ([6]; first compound 2.53 µM): 0.264
relative viability ([6]; first compound 8 µM): 0.448
relative viability ([7]; first compound 0.08 µM): 0.212
relative viability ([7]; first compound 0.253 µM): 0.211
relative viability ([7]; first compound 0.8 µM): 0.203
relative viability ([7]; first compound 8 µM): 0.18
relative viability ([8]; first compound 0.08 µM): 0.399
relative viability ([8]; first compound 0.253 µM): 0.397
relative viability ([8]; first compound 0.8 µM): 0.336
relative viability ([8]; first compound 8 µM): 0.325
relative viability ([9]; first compound 0.08 µM): 0.741
relative viability ([9]; first compound 0.253 µM): 0.693
relative viability ([9]; first compound 0.8 µM): 0.763
relative viability ([9]; first compound 2.53 µM): 0.555
relative viability ([9]; first compound 8 µM): 0.599
relative viability ([10]; first compound 0.08 µM): 0.535
relative viability ([10]; first compound 0.253 µM): 0.587
relative viability ([10]; first compound 0.8 µM): 0.465
relative viability ([10]; first compound 2.53 µM): 0.447
relative viability ([10]; first compound 8 µM): 0.434
relative viability ([11]; first compound 0.08 µM): 0.309
relative viability ([11]; first compound 0.253 µM): 0.374
relative viability ([11]; first compound 0.8 µM): 0.306
relative viability ([11]; first compound 2.53 µM): 0.232
relative viability ([11]; first compound 8 µM): 0.271
relative viability ([12]; first compound 0.08 µM): 0.413
relative viability ([12]; first compound 0.253 µM): 0.489
relative viability ([12]; first compound 0.8 µM): 0.46
relative viability ([12]; first compound 2.53 µM): 0.401
relative viability ([12]; first compound 8 µM): 0.403
relative viability ([13]; first compound 0.08 µM): 0.516
relative viability ([13]; first compound 0.253 µM): 0.554
relative viability ([13]; first compound 0.8 µM): 0.509
relative viability ([13]; first compound 2.53 µM): 0.494
relative viability ([13]; first compound 8 µM): 0.475
relative viability ([14]; first compound 0.08 µM): 0.487
relative viability ([14]; first compound 0.253 µM): 0.671
relative viability ([14]; first compound 0.8 µM): 0.473
relative viability ([14]; first compound 8 µM): 0.492
relative viability ([15]; first compound 0.08 µM): 0.764
relative viability ([15]; first compound 0.253 µM): 0.733
relative viability ([15]; first compound 0.8 µM): 0.654
relative viability ([15]; first compound 2.53 µM): 0.738
relative viability ([15]; first compound 8 µM): 0.713
relative viability ([16]; first compound 0.253 µM): 0.333
relative viability ([16]; first compound 0.8 µM): 0.277
relative viability ([16]; first compound 8 µM): 0.262
relative viability ([17]; first compound 0.08 µM): 0.338
relative viability ([17]; first compound 0.253 µM): 0.436
relative viability ([17]; first compound 0.8 µM): 0.334
relative viability ([17]; first compound 2.53 µM): 0.33
relative viability ([17]; first compound 8 µM): 0.349
relative viability ([18]; first compound 0.08 µM): 0.831
relative viability ([18]; first compound 0.253 µM): 0.78
relative viability ([18]; first compound 0.8 µM): 0.841
relative viability ([18]; first compound 2.53 µM): 0.83
relative viability ([18]; first compound 8 µM): 0.79
relative viability ([19]; first compound 0.08 µM): 0.696
relative viability ([19]; first compound 0.253 µM): 0.642
relative viability ([19]; first compound 0.8 µM): 0.577
relative viability ([19]; first compound 2.53 µM): 0.642
relative viability ([19]; first compound 8 µM): 0.434
relative viability ([20]; first compound 0.08 µM): 0.362
relative viability ([20]; first compound 0.253 µM): 0.384
relative viability ([20]; first compound 0.8 µM): 0.453
relative viability ([20]; first compound 8 µM): 0.387
relative viability ([21]; first compound 0.08 µM): 1.02
relative viability ([21]; first compound 0.253 µM): 0.984
relative viability ([21]; first compound 0.8 µM): 0.983
relative viability ([21]; first compound 2.53 µM): 0.834
relative viability ([21]; first compound 8 µM): 0.947
relative viability ([22]; first compound 0.08 µM): 0.332
relative viability ([22]; first compound 0.253 µM): 0.422
relative viability ([22]; first compound 0.8 µM): 0.365
relative viability ([22]; first compound 2.53 µM): 0.306
relative viability ([22]; first compound 8 µM): 0.234
relative viability ([23]; first compound 0.08 µM): 0.242
relative viability ([23]; first compound 0.253 µM): 0.22
relative viability ([23]; first compound 0.8 µM): 0.22
relative viability ([23]; first compound 8 µM): 0.188
relative viability ([24]; first compound 0.08 µM): 0.315
relative viability ([24]; first compound 0.253 µM): 0.35
relative viability ([24]; first compound 0.8 µM): 0.329
relative viability ([24]; first compound 2.53 µM): 0.294
relative viability ([24]; first compound 8 µM): 0.403
